Assay results: PubChem BioAssay (NCI)
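Five compound concentrations were applied to cells in 96-well plates for 48 hours; endpoints were derived by simple linear interpolation of the resulting dose-response curve. GI50 is the concentration that inhibits growth by half. At the TGI there is no net growth.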

Experiments:
Assay in all cases: inhibition of tumour cell growth, NCI panel, 48 h
MOLT-4 leukemia = system: MOLT-4 leukemia
K-562 leukemia = system: K-562 leukemia
IGROV1 ovarian = system: IGROV1 ovarian
RPMI-8226 leukemia = system: RPMI-8226 leukemia
NCI-H23 lung = system: NCI-H23 lung
HOP-62 NSCLC = system: HOP-62 NSCLC
SK-MEL-28 melanoma = system: SK-MEL-28 melanoma
NCI-H460 lung = system: NCI-H460 lung
MDA-MB-231 breast = system: MDA-MB-231 breast
SR leukemia = system: SR leukemia

COC(=O)NC12CC3CC(CC(F)(C3)C1)C2
TGI (MOLT-4 leukemia): > 100 µM
TGI (K-562 leukemia): > 100 µM
TGI (IGROV1 ovarian): > 100 µM
TGI (RPMI-8226 leukemia): > 100 µM
TGI (NCI-H23 lung): > 100 µM
TGI (HOP-62 NSCLC): > 100 µM
TGI (SK-MEL-28 melanoma): > 100 µM
TGI (NCI-H460 lung): > 100 µM

O=S(=O)(c1cccc2c(Cl)cccc12)N1CCCNCC1
GI50 (MOLT-4 leukemia): 12.8 µM
TGI (MOLT-4 leukemia): 26 µM
GI50 (MDA-MB-231 breast): 5.49 µM
TGI (MDA-MB-231 breast): 19.3 µM
GI50 (K-562 leukemia): 12.7 µM
TGI (K-562 leukemia): 25.3 µM
GI50 (IGROV1 ovarian): 18.6 µM
TGI (IGROV1 ovarian): 34.6 µM
GI50 (RPMI-8226 leukemia): 13.9 µM
TGI (RPMI-8226 leukemia): 32.7 µM
GI50 (NCI-H23 lung): 13.8 µM
TGI (NCI-H23 lung): 27.1 µM
GI50 (HOP-62 NSCLC): 11.2 µM
TGI (HOP-62 NSCLC): 23.3 µM
GI50 (SK-MEL-28 melanoma): 10.8 µM
TGI (SK-MEL-28 melanoma): 22.7 µM
GI50 (NCI-H460 lung): 19.4 µM
TGI (NCI-H460 lung): 47 µM

CN(C)C=[N+]=[N-]
TGI (MOLT-4 leukemia): > 100 µM
TGI (K-562 leukemia): > 100 µM
TGI (IGROV1 ovarian): > 100 µM
TGI (RPMI-8226 leukemia): > 100 µM
TGI (SR leukemia): > 100 µM
TGI (NCI-H23 lung): > 100 µM
TGI (HOP-62 NSCLC): > 100 µM
TGI (NCI-H460 lung): > 100 µM

O=C(c1ccccc1)[C@@H]1C[C@H](Sc2ccccc2)c2cc(Cl)ccc2N1
TGI (MOLT-4 leukemia): 60.9 µM
TGI (K-562 leukemia): 74.3 µM
TGI (IGROV1 ovarian): > 100 µM
TGI (RPMI-8226 leukemia): > 100 µM
TGI (SR leukemia): > 100 µM
TGI (NCI-H23 lung): 64.2 µM
TGI (HOP-62 NSCLC): > 100 µM
TGI (SK-MEL-28 melanoma): 58.9 µM
TGI (NCI-H460 lung): 91.6 µM

CC(NCCC(=O)N(CCC(=O)N(CCC(=O)N(CCC(=O)N(CCC(=O)N(CCC(=O)N(CCC(=O)N(CCC(=O)N(CCC(=O)N(CCC(=O)O)[C@H](C)c1ccccc1)[C@H](C)c1ccccc1)[C@H](C)c1ccccc1)[C@H](C)c1ccccc1)[C@H](C)c1ccccc1)[C@H](C)c1ccccc1)[C@H](C)c1ccccc1)[C@H](C)c1ccccc1)[C@H](C)c1ccccc1)c1ccccc1 (stereo partly drawn)
GI50 (MOLT-4 leukemia): 1.61 µM
TGI (MOLT-4 leukemia): 6.7 µM
GI50 (MDA-MB-231 breast): 1.44 µM
TGI (MDA-MB-231 breast): 4.39 µM
GI50 (K-562 leukemia): 2.29 µM
TGI (K-562 leukemia): > 75 µM
GI50 (IGROV1 ovarian): 0.872 µM
TGI (IGROV1 ovarian): 15 µM
GI50 (RPMI-8226 leukemia): 1.1 µM
TGI (RPMI-8226 leukemia): 4.08 µM
GI50 (NCI-H23 lung): 3.9 µM
TGI (NCI-H23 lung): 49.1 µM
GI50 (HOP-62 NSCLC): 1.99 µM
TGI (HOP-62 NSCLC): 6.93 µM
GI50 (SK-MEL-28 melanoma): 1.5 µM
TGI (SK-MEL-28 melanoma): 3.63 µM
GI50 (NCI-H460 lung): 2.05 µM
TGI (NCI-H460 lung): 6.64 µM

COc1cc2c(cc1OC)[C@H]1C(COC(=O)c3ccccc3)CSC(=Nc3ccccc3)N1CC2 (stereo partly drawn)
TGI (IGROV1 ovarian): > 100 µM
TGI (RPMI-8226 leukemia): > 100 µM
TGI (SR leukemia): > 100 µM
TGI (NCI-H23 lung): > 100 µM
TGI (HOP-62 NSCLC): > 100 µM
TGI (SK-MEL-28 melanoma): > 100 µM
TGI (NCI-H460 lung): > 100 µM

CCC[CH2][Sn]([CH2]CCC)([CH2]CCC)[O]C(=O)c1ccc(Cl)cc1Cl
GI50 (MOLT-4 leukemia): 0.215 µM
TGI (MOLT-4 leukemia): 1.71 µM
GI50 (MDA-MB-231 breast): 0.129 µM
TGI (MDA-MB-231 breast): 0.326 µM
GI50 (K-562 leukemia): 0.263 µM
TGI (K-562 leukemia): 1.02 µM
GI50 (IGROV1 ovarian): 0.15 µM
TGI (IGROV1 ovarian): 0.308 µM
GI50 (RPMI-8226 leukemia): 0.146 µM
GI50 (NCI-H23 lung): 0.13 µM
TGI (NCI-H23 lung): 0.296 µM
GI50 (HOP-62 NSCLC): 0.164 µM
TGI (HOP-62 NSCLC): 0.319 µM
GI50 (SK-MEL-28 melanoma): 0.159 µM
TGI (SK-MEL-28 melanoma): 0.302 µM
GI50 (NCI-H460 lung): 0.143 µM
TGI (NCI-H460 lung): 0.299 µM

c1ccc2cc3[s+]snc3cc2c1
TGI (MOLT-4 leukemia): > 100 µM
TGI (K-562 leukemia): > 100 µM
TGI (IGROV1 ovarian): > 100 µM
TGI (SR leukemia): > 100 µM
TGI (NCI-H23 lung): > 100 µM
TGI (HOP-62 NSCLC): > 100 µM
TGI (SK-MEL-28 melanoma): > 100 µM
TGI (NCI-H460 lung): > 100 µM

Cc1[nH]c(=O)n2c(C)nnc2c1C(=O)Nc1cc(Cl)cc(Cl)c1
TGI (MOLT-4 leukemia): > 100 µM
TGI (K-562 leukemia): > 100 µM
TGI (IGROV1 ovarian): 82 µM
TGI (RPMI-8226 leukemia): > 100 µM
TGI (SR leukemia): 66.5 µM
TGI (NCI-H23 lung): 53 µM
TGI (HOP-62 NSCLC): 79.4 µM
TGI (SK-MEL-28 melanoma): 60.8 µM
TGI (NCI-H460 lung): > 100 µM

C/C=C1/CCC2c3[nH]c4ccccc4c3CCN2C1 (stereo not drawn)
TGI (MOLT-4 leukemia): > 100 µM
TGI (K-562 leukemia): > 100 µM
TGI (IGROV1 ovarian): > 100 µM
TGI (SR leukemia): > 100 µM
TGI (NCI-H23 lung): > 100 µM
TGI (HOP-62 NSCLC): > 100 µM
TGI (SK-MEL-28 melanoma): > 100 µM
TGI (NCI-H460 lung): > 100 µM

O=C(NCCCCCCNC(=O)OCCSCCn1cc(C(=O)NC(=O)OCc2ccccc2)c(=O)[nH]c1=O)OCCSCCn1cc(C(=O)NC(=O)OCc2ccccc2)c(=O)[nH]c1=O
TGI (MOLT-4 leukemia): > 100 µM
TGI (K-562 leukemia): > 100 µM
TGI (IGROV1 ovarian): > 100 µM
TGI (RPMI-8226 leukemia): > 100 µM
TGI (NCI-H23 lung): > 100 µM
TGI (HOP-62 NSCLC): > 100 µM
TGI (NCI-H460 lung): > 100 µM

COc1ccc(CC(=O)NCCc2ccc(OC)c(OC)c2)cc1Br
TGI (MOLT-4 leukemia): > 100 µM
TGI (K-562 leukemia): > 100 µM
TGI (IGROV1 ovarian): > 100 µM
TGI (SR leukemia): > 100 µM
TGI (NCI-H23 lung): > 100 µM
TGI (HOP-62 NSCLC): > 100 µM
TGI (SK-MEL-28 melanoma): > 100 µM
TGI (NCI-H460 lung): > 100 µM

C=C1C(=O)OC2C=C(CCC(C)=O)C(C)C(OC(C)=O)CC12 (stereo not drawn)
TGI (MOLT-4 leukemia): 34.1 µM
TGI (K-562 leukemia): 44 µM
TGI (IGROV1 ovarian): 43.9 µM
TGI (RPMI-8226 leukemia): 24 µM
TGI (SR leukemia): 52.9 µM
TGI (SK-MEL-28 melanoma): 20.8 µM
TGI (NCI-H460 lung): 40.6 µM

Cc1ccc(NC(=O)C(=O)CC(=O)c2c(C)n([O-])c3ccccc3[n+]2=O)cc1
TGI (MOLT-4 leukemia): 52.8 µM
TGI (K-562 leukemia): 56.4 µM
TGI (IGROV1 ovarian): 78.3 µM
TGI (RPMI-8226 leukemia): 58.6 µM
TGI (SR leukemia): 49.8 µM
TGI (NCI-H23 lung): 56.6 µM
TGI (HOP-62 NSCLC): > 100 µM
TGI (SK-MEL-28 melanoma): > 100 µM
TGI (NCI-H460 lung): 77.4 µM

CC(C)(CN1CCCCC1)C(=O)/C=C/c1ccc(Cl)cc1
TGI (MOLT-4 leukemia): 5.11 µM
TGI (K-562 leukemia): 12.3 µM
TGI (RPMI-8226 leukemia): 10.1 µM
TGI (SR leukemia): 7.15 µM
TGI (NCI-H23 lung): 6.76 µM
TGI (SK-MEL-28 melanoma): 22.6 µM
TGI (NCI-H460 lung): 8.21 µM

CCOC(=O)/C(=C\c1cccs1)P(=O)(OCC)OCC
TGI (MOLT-4 leukemia): > 100 µM
TGI (K-562 leukemia): > 100 µM
TGI (RPMI-8226 leukemia): 77.1 µM
TGI (SR leukemia): > 100 µM
TGI (NCI-H23 lung): 35.2 µM
TGI (HOP-62 NSCLC): > 100 µM
TGI (SK-MEL-28 melanoma): 32.7 µM
TGI (NCI-H460 lung): 46.9 µM

Cc1cc(NS(=O)(=O)c2ccc(NC(=O)c3ccc(Cl)c4c(Nc5ccc(S(=O)(=O)N=C(N)N)cc5)c5ccccc5nc34)cc2)no1
TGI (MOLT-4 leukemia): 41.6 µM
TGI (K-562 leukemia): > 100 µM
TGI (RPMI-8226 leukemia): > 100 µM
TGI (SR leukemia): 67.9 µM
TGI (NCI-H23 lung): > 100 µM
TGI (HOP-62 NSCLC): 97.7 µM
TGI (SK-MEL-28 melanoma): > 100 µM
TGI (NCI-H460 lung): > 100 µM

C[N+]1(C)C/C(=C\c2ccccc2)C(=O)/C(=C/c2ccccc2)C1
TGI (MOLT-4 leukemia): > 100 µM
TGI (K-562 leukemia): > 100 µM
TGI (IGROV1 ovarian): > 100 µM
TGI (RPMI-8226 leukemia): > 100 µM
TGI (SR leukemia): > 100 µM
TGI (NCI-H23 lung): > 100 µM
TGI (HOP-62 NSCLC): > 100 µM
TGI (SK-MEL-28 melanoma): > 100 µM
TGI (NCI-H460 lung): > 100 µM

CCN1Cc2c(ccc(F)c2C#N)O[C@@H](C)CNC(=O)c2c(N)nn3ccc1nc23
GI50 (MOLT-4 leukemia): 2.75 µM
TGI (MOLT-4 leukemia): 69.2 µM
GI50 (MDA-MB-231 breast): 1.32 µM
TGI (MDA-MB-231 breast): 4.21 µM
GI50 (K-562 leukemia): 0.175 µM
TGI (K-562 leukemia): > 100 µM
GI50 (IGROV1 ovarian): 0.682 µM
TGI (IGROV1 ovarian): 13 µM
GI50 (SR leukemia): 0.626 µM
TGI (SR leukemia): > 100 µM
GI50 (NCI-H23 lung): 2.3 µM
TGI (NCI-H23 lung): 29.4 µM
GI50 (HOP-62 NSCLC): 2.76 µM
TGI (HOP-62 NSCLC): 20.1 µM
GI50 (SK-MEL-28 melanoma): 1.82 µM
TGI (SK-MEL-28 melanoma): 11.5 µM
GI50 (NCI-H460 lung): 2.42 µM
TGI (NCI-H460 lung): 28.9 µM

CCCC/C=C1\CCC(C)(CN(C)C)C1=O (stereo not drawn)
TGI (MOLT-4 leukemia): > 100 µM
TGI (K-562 leukemia): > 100 µM
TGI (IGROV1 ovarian): > 100 µM
TGI (SR leukemia): > 100 µM
TGI (NCI-H23 lung): > 100 µM
TGI (HOP-62 NSCLC): > 100 µM
TGI (SK-MEL-28 melanoma): > 100 µM
TGI (NCI-H460 lung): > 100 µM

COc1ccccc1C1c2cc3c(cc2OC(O)(CO)C1C(=O)O)OCO3 (stereo not drawn) (tested in a mixture with another compound)
TGI (MOLT-4 leukemia): > 100 µM
TGI (K-562 leukemia): > 100 µM
TGI (IGROV1 ovarian): > 100 µM
TGI (RPMI-8226 leukemia): > 100 µM
TGI (SR leukemia): > 100 µM
TGI (NCI-H23 lung): > 100 µM
TGI (HOP-62 NSCLC): > 100 µM
TGI (SK-MEL-28 melanoma): > 100 µM
TGI (NCI-H460 lung): > 100 µM
